Experimental data reported in ChEMBL document CHEMBL1201862, “PubChem BioAssay data set” (2004).
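Briefly, cells in 96-well plates were exposed to five compound concentrations for 48 h, and endpoints were estimated by linear interpolation. The concentration for 50% growth inhibition is given as GI50.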 Active and inactive are the calls of the source. No stated cut-off is given here; in the data, active = GI50 up to about 1.1 µM and inactive = higher.

Experiments:
Test in all cases: growth of human tumour cells (NCI), 48 h
U-251 = system: U-251
T47D = system: T47D
UO-31 = system: UO-31
MDA-MB-231 = system: MDA-MB-231
K562 = system: K562
SK-OV-3 = system: SK-OV-3
SW-620 = system: SW-620
HCT-15 = system: HCT-15
NCI-H460 = system: NCI-H460
BT-549 = system: BT-549
HCT-116 = system: HCT-116
HT-29 = system: HT-29
SK-MEL-28 = system: SK-MEL-28
786-0 = system: 786-0
RXF 393 = system: RXF 393
CCRF-CEM = system: CCRF-CEM

| SMILES | GI50 (U-251) | GI50 (T47D) | GI50 (UO-31) | GI50 (MDA-MB-231) | GI50 (K562) | GI50 (SK-OV-3) | GI50 (SW-620) | GI50 (HCT-15) [µM] | GI50 (NCI-H460) | GI50 (BT-549) | GI50 (HCT-116) | GI50 (HT-29) | GI50 (SK-MEL-28) | GI50 (786-0) | GI50 (RXF 393) | GI50 (CCRF-CEM) |
| --- | --- | --- | --- | --- | --- | --- | --- | --- | --- | --- | --- | --- | --- | --- | --- | --- |
| COc1cc(C2SCC(=O)N2c2ccc(Oc3ccc(Cl)cc3)c(Cl)c2)cc(OC)c1OC (configuration not stated) | 39.5 µM (inactive) | 10.3 µM (inactive) | 17.6 µM (inactive) | 18.7 µM (inactive) | 33.4 µM (inactive) | 17.1 µM (inactive) | 21 µM (inactive) | 26.2 | 43.4 µM (inactive) | 16.5 µM (inactive) | 18.7 µM (inactive) | 16.3 µM (inactive) | 16.6 µM (inactive) | 18.3 µM (inactive) |  |  |
| COc1ccc(-c2csc(Cc3nc4c(Br)cc(Br)cc4c(=O)n3-c3ccc(OC)cc3)n2)cc1 | 30.3 µM (inactive) |  | 35.2 µM (inactive) | 45.7 µM (inactive) | 0.333 µM (active) | 51.8 µM (inactive) | 67 µM (inactive) | 24 | 54 µM (inactive) | > 100 µM (inactive) | 30.4 µM (inactive) | 48.9 µM (inactive) | 24.3 µM (inactive) | 28.3 µM (inactive) | > 100 µM (inactive) | < 0.01 µM (active) |
| O=C(Cn1c2c(c3ccccc31)CCCC2)N1CCOCC1 |  |  | 25.9 µM (inactive) |  | > 100 µM (inactive) | > 100 µM (inactive) | > 100 µM (inactive) | > 100 | > 100 µM (inactive) | > 100 µM (inactive) | > 100 µM (inactive) | > 100 µM (inactive) |  | > 100 µM (inactive) |  | > 100 µM (inactive) |
| Cc1cc2ccccc2oc(=O)/c1=N\Nc1ccccc1 | 39.9 µM (inactive) |  | 24.9 µM (inactive) | 25.6 µM (inactive) | 14.5 µM (inactive) | 21.5 µM (inactive) | 23 µM (inactive) | > 100 | 70 µM (inactive) | 78.9 µM (inactive) | 41.9 µM (inactive) | 64.6 µM (inactive) | > 100 µM (inactive) | 25.6 µM (inactive) | 35.2 µM (inactive) | > 100 µM (inactive) |
| COc1cc(OC)c(/C=N\Nc2nc3ccccc3c(=O)n2-c2ccccc2)c(OC)c1 | 32.1 µM (inactive) | 24.6 µM (inactive) | > 48.8 µM (inactive) | 23.8 µM (inactive) | 33 µM (inactive) | 24.9 µM (inactive) | 31 µM (inactive) | 37.4 | 21.7 µM (inactive) |  | 20.1 µM (inactive) | 24.5 µM (inactive) | 27.4 µM (inactive) | 17.7 µM (inactive) | 23.7 µM (inactive) | 14.2 µM (inactive) |
| Cc1ccc(CNc2ccc(Br)cc2)cc1 | 28.1 µM (inactive) | 29.5 µM (inactive) | 13.5 µM (inactive) | 19.3 µM (inactive) | 22.9 µM (inactive) | 53.8 µM (inactive) | 37.5 µM (inactive) | 10.4 | 23.8 µM (inactive) |  | 26.7 µM (inactive) | 28.2 µM (inactive) | 87.5 µM (inactive) | 48.3 µM (inactive) | 23.1 µM (inactive) | 11.5 µM (inactive) |
| Nc1csc(-c2scc3c2OCCO3)c1N | 15.6 µM (inactive) |  | 17.9 µM (inactive) | 20.6 µM (inactive) | 24.4 µM (inactive) |  | 26.2 µM (inactive) | 17.7 | 22.5 µM (inactive) | 16.5 µM (inactive) | 20 µM (inactive) | 20.7 µM (inactive) | 17.5 µM (inactive) | 17.3 µM (inactive) | 17.9 µM (inactive) |  |
| Cc1ccc2c(c1)NC(=O)CC(c1ccccc1)=N2 | > 100 µM (inactive) | 70.6 µM (inactive) | 63.1 µM (inactive) | 23.7 µM (inactive) | 5.18 µM (inactive) | > 100 µM (inactive) | > 100 µM (inactive) | 61.4 | > 100 µM (inactive) | > 100 µM (inactive) | 61.5 µM (inactive) | > 100 µM (inactive) | > 100 µM (inactive) | > 100 µM (inactive) |  |  |
